From PubChem BioAssay (NCI)
Several values for one entry are separate records, joined by “and”; a condition that tells them apart may be missing. Equal values may be shown once.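 Protocol summary: plate cells (96-well), add compound at 5 concentrations, incubate 48 h, interpolate endpoints linearly. Here, GI50 denotes the concentration required for 50% inhibition of growth. TGI is the concentration that stops growth completely.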

Legend:
Experiment in all cases: growth of human tumour cells (NCI), 48 h
[1] = test system: BT-549 breast
[2] = test system: CAKI-1 renal
[3] = test system: HCT-15 colon
[4] = test system: MALME-3M melanoma
[5] = test system: MDA-MB-231 breast
[6] = test system: NCI-H522 lung
[7] = test system: SF-268 CNS
[8] = test system: SNB-75 CNS
[9] = test system: UACC-257 melanoma
[10] = test system: UACC-62 melanoma

Row | Compound | TGI [1] [µM] | TGI [2] [µM] | TGI [3] [µM] | TGI [4] | TGI [5] [µM] | TGI [6] [µM] | TGI [7] [µM] | TGI [8] | TGI [9] | TGI [10] | GI50 [1] [µM] | GI50 [2] | GI50 [3] | GI50 [4] | GI50 [5] [µM] | GI50 [6] | GI50 [7] | GI50 [8] [µM] | GI50 [9] [µM] | GI50 [10]
1 | CC(=O)O[C@H]1C(=O)[C@@]2(C)C(C(OC(=O)c3ccccc3)[C@]3(O)C[C@H](OC(=O)C(OC(=O)CCCC(=O)NCCCN(C)C)C(NC(=O)c4ccccc4)c4ccccc4)C(C)=C1C3(C)C)C1(OC(C)=O)COC1C[C@@H]2O (some centres undefined) | 31.9 | > 100 | 19.2 | 20.8 µM | 13.8 | < 0.0105 | 75.3 | 0.021 µM | 33.5 µM | 7 µM |  |  |  |  |  |  |  |  |  | 
2 | O=Nc1ccc(O)c(=O)cc1 | 8.75 | 5.8 | 9.62 | 4.14 µM | 8.79 | 0.524 | 10.6 | 17.2 µM | 7.86 µM | 5.68 µM | 2.86 | 0.936 µM | 2.37 µM | 1.21 µM | 2.31 | 0.141 µM | 3.43 µM | 3.77 | 2.26 | 2.01 µM
3 | CC(C)(C)c1ccc(S(=O)(=O)Oc2ccc3c4c(c(=O)oc3c2)CCCCC4)cc1 | > 100 | 43.5 | > 100 | 76.5 µM | 49.3 | > 100 | > 100 | 36.8 µM | > 100 µM | 33.6 µM | 17.7 | 10.9 µM | 7.92 µM | 24.8 µM | 15.2 | 19.2 µM | 39.7 µM | 13.3 | 7.46 | 3.19 µM
4 | CCCCCCCCCCCCOC1C(CNC(=O)C2OC3OC(C)(C)OC3C2NC(=O)Nc2ccc(CC(=O)OC)cc2)OC2OC(C)(C)OC21 (centres undefined) | > 100 | > 100 | > 100 | > 100 µM | > 82 | > 100 | > 100 | > 100 µM | > 100 µM | > 100 µM | > 100 | 47 µM | > 100 µM | > 78.1 µM | 8.43 | > 100 µM | > 100 µM | > 100 | > 100 | > 100 µM
5 | CC(=O)Nc1ccc2c(c1)C(c1ccccc1Cl)=Nc1c(n[nH]c1C)N2 | > 25 | > 22.5 | > 25 | > 25 µM | > 25 | > 25 | > 21.4 | 6.24 µM | > 25 µM | > 25 µM | 6.58 | 2.84 µM | 10.8 µM | > 25 µM | > 17.1 | > 15.9 µM | 3.01 µM | 0.732 | > 25 | 6.07 µM
6 | COc1cc2c(cc1OC)[C@@H](Nc1ccc(C#N)cc1)C1COC(=O)[C@@H]1C2c1cc(OC)c(O)c(OC)c1 (some centres undefined) | 9.78 |  |  | 70.7 µM and 44.2 µM | 6.67 |  |  | 4 µM and 2.11 µM | 95 µM and > 100 µM | 12.9 µM and 2.68 µM |  | 0.223 µM and 0.166 µM | 0.91 µM and 1.39 µM | 1.36 µM and 2.47 µM |  | 1.11 µM and 5.06 µM | 0.342 µM and 0.663 µM |  |  | 0.372 µM and 0.167 µM
7 | c1cc(NNc2cccc(-c3nn[nH]n3)c2)cc(-c2nn[nH]n2)c1 | > 100 | > 100 | > 100 | > 100 µM | > 100 | > 100 | > 100 | > 100 µM | > 100 µM | > 100 µM |  |  |  |  |  |  |  |  |  | 
8 | COc1ccc2c(c1OC)C[C@@H]1c3c(cc4c(c3-2)OCO4)CCN1C | > 100 | > 100 | > 100 | > 100 µM | > 100 | 62.9 | > 100 | 52.5 µM | 61 µM | 43.8 µM |  |  |  |  |  |  |  |  |  | 
9 | O=c1c2c(=NCCN3CCCC3)cc3c(=O)n(CCCN4CCOCC4)c(=O)c4c(-c5ccc(CN6CCCC6)cc5)cc(c(O)n1CCCN1CCOCC1)c2c4-3 | 0.5 | 0.651 | 1.11 | 0.388 µM | 0.384 | 0.135 | 0.567 | 0.228 µM | 1.33 µM | 0.239 µM | 0.116 | 0.0346 µM | 0.0664 µM | 0.105 µM | 0.0397 | 0.0265 µM | 0.0781 µM | 0.0582 | 0.194 | 0.08 µM
10 | COc1ccc(C2=N[C@@H](Cc3ccccc3)C(=O)Nc3ccsc32)cc1 | 28.5 | 33.8 | 20.4 | 25.9 µM | 29.1 | 8.98 | 43.8 | 7.08 µM | 36.7 µM | 20.2 µM | 10.6 | 3.87 µM | 3.9 µM | 10.4 µM | 11.4 | 2.71 µM | 10.4 µM | 2.05 | 11.6 | 4.47 µM
11 | Cc1cc(O)c(=O)cc2c1C[C@H]1CC(C)(C)/C=C/C[C@]3(C)Oc4cc(=O)c(O)cc(C)c4C[C@H]3C[C@H](O)[C@@]1(C)O2 | 4.55 |  | > 100 | 0.544 µM | 50.3 | 0.0853 | > 63.1 | 42 µM | 0.0895 µM | 0.157 µM | 0.0319 | 0.0225 µM | < 0.01 µM | 0.0282 µM | 0.0322 | 0.0192 µM | < 0.01 µM | 0.0262 | 0.0215 | 0.0296 µM
12 | CCN1C(=S)N(c2ccccc2)C2NC(=S)N(/N=C/C=C/c3ccccc3OC)C21 (centres undefined) |  | > 100 | > 100 | > 100 µM | > 27.4 | 1.26 | > 91 | 4.36 µM | > 100 µM | > 100 µM | 0.954 | 0.298 µM | 0.344 µM | 0.957 µM | 0.544 | 0.224 µM | 0.706 µM | 0.211 | > 100 | 0.421 µM
13 | CCOC(=O)c1cc(C(=O)c2cc(OC)c(OC)c(OC)c2)n2ncccc12 | > 100 | > 100 | > 100 | > 100 µM | > 100 | > 21.7 | > 100 | 42.4 µM | > 100 µM | > 100 µM | 0.761 | 0.374 µM | 0.251 µM |  | 1.82 | 0.29 µM | 3.02 µM | 0.175 | 65.7 | 0.196 µM
14 | COC(=O)c1n[nH]c(C)c1N=NN(C)CCC#N | 28.6 | 33.4 | 32.1 | 34.6 µM | 62.8 | 25.1 | 50 | 33 µM | > 100 µM | 35.2 µM |  |  |  |  |  |  |  |  |  | 
